# Source: paper PMC13198257, “An aerosolized dual-action autotaxin inhibitor-PPARγ agonist for the treatment of pulmonary fibrosis” (Cell Reports Medicine, 2026)
# Tested on: lung gene expression
# Assay: RNA sequencing of lung tissue (BLM/EL244 vs BLM)
# Format: in vivo, mouse
# Experimental: RNA quality was assessed using an Agilent TapeStation 4150 with the High Sensitivity […] ScreenTape (Agilent), according to the manufacturer’s protocols. For library preparation, the QuantSeq 3’mRNA-Seq Library Prep Kit (Lexogen) was used according to manufacturer’s instructions. Briefly, 500 ng of RNA from each sample was used for first-strand synthesis, followed by RNA template removal, and second-strand synthesis initiated by random primers. In-line barcodes were introduced at this step, and this was followed by magnetic bead-based purification. The resulting libraries were amplified for 15 cycles and re-purified, with quantity and quality assessed on a Qubit 4 Fluorometer with the Invitrogen Qubit dsDNA HS Assay and an Agilent Tapestation 4150 with the High Sensitivity D1000 assay kit, respectively. The quantified libraries were pooled equimolarly; 50ng of total library mix was used for Adapter Conversion PCR Amplification using the Universal Library Conversion Kit (App-A), Version: V1.0 (MGI Tech Co., Ltd.), according to the manufacturer’s instructions.
# The quantity and quality of the purified adapter conversion PCR (AC-PCR) product were evaluated on a Qubit 4 Fluorometer with the Invitrogen Qubit dsDNA HS Assay and on an Agilent Tapestation 4150 with the High Sensitivity D1000 assay kit, respectively. This was followed by DNA denaturation, Single-Strand Circularisation, Enzymatic Digestion, Enzymatic Digestion Product Cleanup and Quality Control steps on 1 pmol of AC-PCR product, according to the Universal Library Conversion Kit (App-A) User Manual (Version: A3).
# Finally, 60 fmol of ssCirDNA were used for DNB preparation and sequencing on a DNBSEQ-G400 platform at the BSRC Alexander Fleming Genomics Facility, using a G400 App-A FCS SE100 High-throughput Sequencing Set (MGI Tech Co., Ltd.), according to the manufacturer’s instructions.
# Alignment of the FASTQ files was performed against the mouse genome build mm10 using a custom Bash script.[143] Read counting on the 3′ UTRs and differential expression analysis were conducted using the metaseqR2 bioconductor package.[144] Genes corresponding to the following biotypes were excluded: polymorphic_pseudogene, processed_transcript, pseudogene, IG_V_pseudogene, misc_RNA, IG_C_gene, IG_J_gene, IG_D_gene, IG_LV_gene, TR_V_gene, TR_V_pseudogene, TEC, and processed_pseudogene. Gene counts were normalized with DESEQ[145] through metaseqR2. Genes with more than 10 counts in at least 50% of the samples were kept for further processing. For differential expression analysis, the PANDORA algorithm[146] was used to estimate a meta p-value integrating the results from the DESEQ, DESEQ2,[147] edgeR,[148] limma,[149] NBPSeq,[150] and NOISeq[151] algorithms. All additional parameters were set to default values.
# Pathway enrichment analysis was performed for the Gene Ontology Biological process (BP) and Molecular Function (MF) terms through GeneCodis 4.[152] The volcano plots, scatterplots, Venn diagrams, and dot plots were generated using the ggplot2 Bioconductor package.
# [1] = lung tissue of BLM-treated mice, BLM/EL244 vs BLM
structure (smiles),measurement,setting,value
"O=C1NC(=O)C(Cc2ccc(OCCC3CCN(C(=O)OCc4cc(Cl)cc(Cl)c4)CC3)cc2)S1 (stereo not shown) [EL244, 3,5-dichlorobenzyl 4-(2-(4-((2,4-dioxothiazolidin-5-yl)methyl)phenoxy)ethyl)piperidine-1-carboxylate]",Rora log2 nFC BLM/EL244 vs BLM,"DEG Rora, nFC: normalised fold change",0.80
same,log2 nFC BLM/EL244 vs BLM,DEG Rrm2,-2.56
same,Ryr2 log2 nFC BLM/EL244 vs BLM,"DEG Ryr2, nFC: normalised fold change",2.14
same,S1pr4 log2 nFC BLM/EL244 vs BLM,"DEG S1pr4, nFC: normalised fold change",0.94
same,S1pr5 log2 nFC BLM/EL244 vs BLM,"DEG S1pr5, nFC: normalised fold change",1.64
same,log2 nFC BLM/EL244 vs BLM,DEG S100a4,-1.26
same,S100a8 log2 nFC BLM/EL244 vs BLM,"DEG S100a8, nFC: normalised fold change",1.52
same,S100a9 log2 nFC BLM/EL244 vs BLM,"DEG S100a9, nFC: normalised fold change",2.11
same,log2 nFC BLM/EL244 vs BLM,DEG S100a14,-1.28
same,Scn3a log2 nFC BLM/EL244 vs BLM,"DEG Scn3a, nFC: normalised fold change",0.75
same,Scube2 log2 nFC BLM/EL244 vs BLM,"DEG Scube2, nFC: normalised fold change",0.74
same,Sec14l3 log2 nFC BLM/EL244 vs BLM,"DEG Sec14l3, nFC: normalised fold change",0.69
same,Sec14l4 log2 nFC BLM/EL244 vs BLM,"DEG Sec14l4, nFC: normalised fold change",0.77
same,Sell log2 nFC BLM/EL244 vs BLM,"DEG Sell, nFC: normalised fold change",1.03
same,Sema3g log2 nFC BLM/EL244 vs BLM,"DEG Sema3g, nFC: normalised fold change",0.78
same,log2 nFC BLM/EL244 vs BLM,DEG Serpina3g,-1.31
same,Sftpa1 log2 nFC BLM/EL244 vs BLM,"DEG Sftpa1, nFC: normalised fold change",0.70
same,Sgip1 log2 nFC BLM/EL244 vs BLM,"DEG Sgip1, nFC: normalised fold change",0.90
same,Sgms1 log2 nFC BLM/EL244 vs BLM,"DEG Sgms1, nFC: normalised fold change",0.71
same,log2 nFC BLM/EL244 vs BLM,DEG Ska1,-2.52
same,log2 nFC BLM/EL244 vs BLM,DEG Slamf8,-1.24
same,Slc2a4rg-ps log2 nFC BLM/EL244 vs BLM,"DEG Slc2a4rg-ps, nFC: normalised fold change",0.85
same,Slc7a10 log2 nFC BLM/EL244 vs BLM,"DEG Slc7a10, nFC: normalised fold change",0.97
same,log2 nFC BLM/EL244 vs BLM,DEG Slc7a11,-1.50
same,Slc16a11 log2 nFC BLM/EL244 vs BLM,"DEG Slc16a11, nFC: normalised fold change",0.79
same,Slc38a4 log2 nFC BLM/EL244 vs BLM,"DEG Slc38a4, nFC: normalised fold change",1.12
same,Slc43a3 log2 nFC BLM/EL244 vs BLM,"DEG Slc43a3, nFC: normalised fold change",0.73
same,Sln log2 nFC BLM/EL244 vs BLM,"DEG Sln, nFC: normalised fold change",2.01
same,Smad6 log2 nFC BLM/EL244 vs BLM,"DEG Smad6, nFC: normalised fold change",1.18
same,Smpx log2 nFC BLM/EL244 vs BLM,"DEG Smpx, nFC: normalised fold change",2.34
same,Smyd1 log2 nFC BLM/EL244 vs BLM,"DEG Smyd1, nFC: normalised fold change",1.73
same,Snhg11 log2 nFC BLM/EL244 vs BLM,"DEG Snhg11, nFC: normalised fold change",1.40
same,Sntb1 log2 nFC BLM/EL244 vs BLM,"DEG Sntb1, nFC: normalised fold change",0.72
same,Snx21 log2 nFC BLM/EL244 vs BLM,"DEG Snx21, nFC: normalised fold change",1.15
same,Sorbs1 log2 nFC BLM/EL244 vs BLM,"DEG Sorbs1, nFC: normalised fold change",0.70
same,Sorbs3 log2 nFC BLM/EL244 vs BLM,"DEG Sorbs3, nFC: normalised fold change",0.80
same,log2 nFC BLM/EL244 vs BLM,DEG Sox9,-1.42
same,log2 nFC BLM/EL244 vs BLM,DEG Spp1,-1.50
same,Srcin1 log2 nFC BLM/EL244 vs BLM,"DEG Srcin1, nFC: normalised fold change",0.91
same,Syne1 log2 nFC BLM/EL244 vs BLM,"DEG Syne1, nFC: normalised fold change",0.70
same,Synm log2 nFC BLM/EL244 vs BLM,"DEG Synm, nFC: normalised fold change",0.84
same,log2 nFC BLM/EL244 vs BLM,DEG Tacc3,-1.27
same,Tbata log2 nFC BLM/EL244 vs BLM,"DEG Tbata, nFC: normalised fold change",1.72
same,Tbkbp1 log2 nFC BLM/EL244 vs BLM,"DEG Tbkbp1, nFC: normalised fold change",0.71
same,Tcap log2 nFC BLM/EL244 vs BLM,"DEG Tcap, nFC: normalised fold change",1.73
same,log2 nFC BLM/EL244 vs BLM,DEG Tcf19,-1.42
same,Tex11 log2 nFC BLM/EL244 vs BLM,"DEG Tex11, nFC: normalised fold change",1.83
same,Tgfbr3 log2 nFC BLM/EL244 vs BLM,"DEG Tgfbr3, nFC: normalised fold change",0.83
same,Tmem100 log2 nFC BLM/EL244 vs BLM,"DEG Tmem100, nFC: normalised fold change",0.82
same,Tmem182 log2 nFC BLM/EL244 vs BLM,"DEG Tmem182, nFC: normalised fold change",2.26
same,Tmem132d log2 nFC BLM/EL244 vs BLM,"DEG Tmem132d, nFC: normalised fold change",2.38
same,log2 nFC BLM/EL244 vs BLM,DEG Tnip3,-1.47
same,Tnnc1 log2 nFC BLM/EL244 vs BLM,"DEG Tnnc1, nFC: normalised fold change",2.18
same,Tnni3 log2 nFC BLM/EL244 vs BLM,"DEG Tnni3, nFC: normalised fold change",2.31
same,Tnnt2 log2 nFC BLM/EL244 vs BLM,"DEG Tnnt2, nFC: normalised fold change",1.77
same,Tns2 log2 nFC BLM/EL244 vs BLM,"DEG Tns2, nFC: normalised fold change",0.77
same,Tppp3 log2 nFC BLM/EL244 vs BLM,"DEG Tppp3, nFC: normalised fold change",0.77
same,log2 nFC BLM/EL244 vs BLM,DEG Trem2,-1.42
same,log2 nFC BLM/EL244 vs BLM,DEG Trip13,-1.42
same,Ttn log2 nFC BLM/EL244 vs BLM,"DEG Ttn, nFC: normalised fold change",2.53
same,Unc45b log2 nFC BLM/EL244 vs BLM,"DEG Unc45b, nFC: normalised fold change",0.77
same,Upk3b log2 nFC BLM/EL244 vs BLM,"DEG Upk3b, nFC: normalised fold change",1.53
same,Vpreb3 log2 nFC BLM/EL244 vs BLM,"DEG Vpreb3, nFC: normalised fold change",0.71
same,Vwa3b log2 nFC BLM/EL244 vs BLM,"DEG Vwa3b, nFC: normalised fold change",0.98
same,log2 nFC BLM/EL244 vs BLM,DEG Wfdc17,-1.30
same,Xndc1 log2 nFC BLM/EL244 vs BLM,"DEG Xndc1, nFC: normalised fold change",1.14
same,Zmynd10 log2 nFC BLM/EL244 vs BLM,"DEG Zmynd10, nFC: normalised fold change",1.28
same,log2 nFC BLM/EL244 vs BLM,DEG Zranb3,-1.43
same,log2 nFC BLM/EL244 vs BLM,DEG Zwilch,-1.54
same,1810010H24Rik log2 nFC,[1],0.90
same,1810010H24Rik nFC,[1],1.87
same,Abca8a log2 nFC,[1],0.75
same,Abca8a nFC,[1],1.68
same,Abi3bp log2 nFC,[1],1.00
same,Abi3bp nFC,[1],2.00
same,Acbd4 log2 nFC,[1],0.86
same,Acbd4 nFC,[1],1.81
same,Adgrf5 log2 nFC,[1],0.68
same,Adgrf5 nFC,[1],1.60
same,Adh7 log2 nFC,[1],1.02
same,Adh7 nFC,[1],2.02
same,Aldh1a1 log2 nFC,[1],0.78
same,Aldh1a1 nFC,[1],1.71
same,Ankrd44 log2 nFC,[1],0.84
same,Ankrd44 nFC,[1],1.79
same,Aox3 log2 nFC,[1],1.07
same,Aox3 nFC,[1],2.09
same,Ar log2 nFC,[1],1.04
same,Ar nFC,[1],2.06
same,Arhgef28 log2 nFC,[1],0.76
same,Arhgef28 nFC,[1],1.70
same,Arhgef38 log2 nFC,[1],0.87
same,Arhgef38 nFC,[1],1.83
same,Arl4a log2 nFC,[1],0.70
same,Arl4a nFC,[1],1.63
same,Atp2a3 log2 nFC,[1],0.83
same,Atp2a3 nFC,[1],1.77
same,Atp6v1c2 log2 nFC,[1],1.03
same,Atp6v1c2 nFC,[1],2.04
same,Atp7b log2 nFC,[1],0.95
same,Atp7b nFC,[1],1.93
same,Bcar3 log2 nFC,[1],0.82
same,Bcar3 nFC,[1],1.76
same,Bmp6 log2 nFC,[1],1.07
same,Bmp6 nFC,[1],2.10
same,Cbr2 log2 nFC,[1],0.91
same,Cbr2 nFC,[1],1.88
same,Ccdc153 log2 nFC,[1],0.79
same,Ccdc153 nFC,[1],1.73
same,Ccdc171 log2 nFC,[1],1.04
same,Ccdc171 nFC,[1],2.06
same,Ccl5 log2 nFC,[1],0.76
same,Ccl5 nFC,[1],1.69
same,Cep85l log2 nFC,[1],1.02
same,Cep85l nFC,[1],2.03
